From PMC6767236, “Selective Cannabinoid 2 Receptor Agonists as Potential Therapeutic Drugs for the Treatment of Endotoxin-Induced Uveitis” (Molecules, 2019)
Read-outs that look alike come from different tables or passages of the source.

What was measured:
[1] = target: T1, human CB2R (Homo sapiens, UniProt P34972); assay: cAMP assay, CHO cells expressing human CB2R; assay type: cell-based
T1 construct: bgal (beta-galactosidase fragment of the PathHunter system, named only in the cell line's name); host or cells: CHO-K1 (CHOK1hCB2_bgal)
Experimental: The effect of ligands on the forskolin-stimulated accumulation of cAMP was determined using the LANCE ULTRA cAMP kit as per the manufacturer’s instruction (Perkin-Elmer Life Sciences, Boston, MA, USA).
For human CB2R and CB1R, cAMP assays were performed using CHO cells stably expressing human CB2R or human CB1R (DiscoveRx, Fremont, CA, USA) using a cAMP-Nano-TRF detection kit (Roche Diagnostics, Penzberg, Germany). Cells were seeded 17–24 h prior to the experiment at a density of 3 × 10^4 cells per well in a black 96-well plate with clear flat bottom (Corning, Wiesbaden, Germany) and incubated in 5% CO2 at 37 °C in a humidified incubator. The growth medium was exchanged with Krebs Ringer bicarbonate buffer with 1 mmol/L 3-isobutyl-1-methylxanthine (IBMX), 0.1% fatty acid-free BSA and incubated at 30 °C for 60 min. Agonist was added to a final assay volume of 100 μL and the mixture was incubated for 30 min at 30 °C. The assay was stopped by the addition of 50 μL 3 × lysis reagent and shaken for 2 h at room temperature. The time-resolved fluorescence energy transfer was measured using an LF502 Nanoscan FLT (IOM, Berlin, Germany), equipped with a laser as excitation source. cAMP content was determined from the function of a standard curve spanning from 10 to 0.13 nmol/L cAMP. Efficacies are expressed as percent relative to 1 µM CP55940.

[2] = set-up: method as in earlier work; settings: * previously published; cited from earlier work
[3] = test system: neutrophils from WT mice; assay: Transwell neutrophil migration assay towards CXCL2, WT neutrophils; assay type: cell-based, mouse; settings: for CXCL2-induced neutrophil migration: WT neutrophils pre-treated 30 min, 10 nM CXCL2, RO6851228 at 0.01–1.0 μM
Experimental: As described previously, mouse neutrophils were isolated from the bone marrow of mice. Mice were euthanized, femur and tibia were dissected and flushed with ice-cold 1× Hanks balanced salt solution (HBSS; supplemented with […], pH7.5, and 0.5 mM EDTA; Invitrogen) through a sterile filter (70 μm). The suspension was centrifuged at 300× g for 12 min at 4 °C. EasySep™ neutrophil enrichment kit ([…] Technologies Inc., Vancouver, BC, Canada) was used to isolate neutrophils according to the manufacturer’s instructions. The isolated neutrophils were then washed once and the pelleted cells were suspended in RPMI (Invitrogen) containing 1% heat-inactivated fetal bovine serum (FBS, Invitrogen) and used immediately for neutrophil migration experiments or processed for adoptive transfer. The murine neutrophil isolation protocol routinely yields cell suspensions that are >95% pure and viable, as determined by cresyl violet and trypan blue exclusion, respectively.
Neutrophil migration assays were performed using a Transwell migration assay. Isolated neutrophils (1 × 10^5 cells/100 μL) from WT or CB2R^-/- mice were incubated with vehicle (0.01% DMSO), or various concentrations of RO8671304 or RO6851228 at 37 °C, 5% CO2 for 30 min. Cells were then loaded into the upper chamber of 3 μm Transwell inserts (Corning Life Sciences, Corning, NY, USA) coated with 5% FBS. Transwells were placed in 24-well plates containing RPMI (1% FBS) alone or 10^−8 M chemokine C–X–C motif ligand 2 (CXCL2)/[…] (Peprotech, Rocky Hill, NJ, USA). Plates were incubated for 1 h at 37 °C, 5% CO2. To determine the number of neutrophils that migrated from the top to the bottom chamber, the filter was removed and neutrophils in the lower chamber gently pipetted to evenly distribute and sink to the bottom of the pate. An Olympus inverted bright-field microscope with an Infinity 3 camera (Lumenera, Ottawa, ON, Canada) was used to photograph 12 random fields (10× magnification) of each well. The number of migrated neutrophils was then determined using ImageJ. […]

[4] = set-up: method as in earlier work; settings: * previously published, cited from earlier work
[5] = target: T2, mouse CB2R (Mus musculus, UniProt P47936); set-up: bgal (beta-galactosidase fragment of the PathHunter system, named only in the cell line's name); host or cells: CHO-K1 (CHOK1mCB2_bgal); settings: [3H]-CP55940 displacement; * previously published; cited from earlier work
[6] = target: T2, mouse CB2R; set-up: bgal (beta-galactosidase fragment of the PathHunter system, named only in the cell line's name); host or cells: CHO-K1 (CHOK1mCB2_bgal); settings: * previously published; read-out: mouse CB2R: cAMP EC50; cited from earlier work

T2 sequence (P47936 whole entry, the tested form may be a part): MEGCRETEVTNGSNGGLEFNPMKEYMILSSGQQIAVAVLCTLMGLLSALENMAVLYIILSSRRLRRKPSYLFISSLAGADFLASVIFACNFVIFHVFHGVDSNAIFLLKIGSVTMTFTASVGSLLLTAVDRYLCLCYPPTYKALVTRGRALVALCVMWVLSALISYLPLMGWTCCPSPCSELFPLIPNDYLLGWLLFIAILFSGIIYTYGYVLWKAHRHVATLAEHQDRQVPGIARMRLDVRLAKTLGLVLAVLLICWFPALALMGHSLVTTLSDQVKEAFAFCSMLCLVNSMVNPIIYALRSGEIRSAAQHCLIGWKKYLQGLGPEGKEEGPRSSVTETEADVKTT
T1 sequence (P34972 whole entry, the tested form may be a part): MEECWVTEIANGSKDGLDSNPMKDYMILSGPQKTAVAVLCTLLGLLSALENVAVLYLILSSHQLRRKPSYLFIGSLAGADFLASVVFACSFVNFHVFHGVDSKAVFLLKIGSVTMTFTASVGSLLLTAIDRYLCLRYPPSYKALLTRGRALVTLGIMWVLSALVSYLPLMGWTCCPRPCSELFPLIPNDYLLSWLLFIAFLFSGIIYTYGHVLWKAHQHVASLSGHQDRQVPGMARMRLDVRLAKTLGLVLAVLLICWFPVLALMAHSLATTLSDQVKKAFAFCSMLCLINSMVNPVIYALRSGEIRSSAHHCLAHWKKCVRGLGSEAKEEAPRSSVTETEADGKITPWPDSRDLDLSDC

| SMILES | hCB1R cAMP EC50/hCB2R cAMP EC50 [1] | Plasma Protein Binding: FREE Fraction mouse [2] | CXCL2-induced neutrophil migration [3] | pKa (basic) [4] | Ki [5] | EC50 [6] | pKa (acidic, calculated) ([4]; calculated) | pKa (basic, calculated) ([4]; calculated) | hCB1R cAMP EC50/hCB2R cAMP EC50 ([1]; functional selectivity) | IC50 ([3]; Neutrophil, towards 10 nM CXCL2, WT mouse neutrophils, read-out: IC50 for inhibition of neutrophil migration) |
| --- | --- | --- | --- | --- | --- | --- | --- | --- | --- | --- |
| CCCCCCC(C)(C)c1cc(OC)c(C2=C[C@H]3CC[C@]2(CO)C3(C)C)c(OC)c1 [HU910, {(1S,4R)-2-[2,6-dimethoxy-4-(2-methyloctan-2-yl)phenyl]-7,7-dimethylbicyclo[2.2.1]hept-2-en-1-yl}methanol, reference compound] | >2500 | 4.1% |  |  |  |  |  |  |  |  |
| CNC(=O)[C@@H](NC(=O)c1cc(OCC2(C)COC2)c(C2CC2)cn1)C(C)(C)C [RO6851228, 5-Cyclopropyl-N-[(2S)-3,3-dimethyl-1-(methylamino)-1-oxobutan-2-yl]-4-[(3-methyloxetan-3-yl)methoxy]pyridine-2-carboxamide] |  |  | did not affect CXCL2-induced neutrophil migration | 3.3 | 1 nM | 4 nM |  |  |  |  |
| Cc1nc([C@](C)(CC2CC2)NC(=O)c2cc(OCC(F)(F)F)c(C3CC3)cn2)no1 [RO6871085, 5-Cyclopropyl-N-[(2S)-1-cyclopropyl-2-(5-methyl-1,2,4-oxadiazol-3-yl)propan-2-yl]-4-(2,2,2-trifluoroethoxy)pyridine-2-carboxamide] |  | 0.9% |  |  | 6 nM | 3 nM | 10.1 | 2.6 |  |  |
| CC(C)(C)c1nc(N2CC[C@H](O)C2)c2nnn(Cc3nnnn3C3CC3)c2n1 [RO6871304, (3S)-1-{5-tert-butyl-3-[(1-cyclopropyl-1H-tetrazol-5-yl)methyl]-3H-[1,2, 3]triazolo[4,5-d]pyrimidin-7-yl}pyrrolidin-3-ol] |  |  | inhibited neutrophil migration towards CXCL2 in a dose-dependent fashion |  |  |  |  |  | >10,000 | 6.6 nM |
